# Measurements: patent publication US20230017045A1, “PYRIDINE AND PYRIMIDINE CARBOXYLATE HERBICIDES AND METHODS OF USE THEREOF” (Dow AgroSciences LLC, priority 2017, published 2023)
# System: not given
# Assay: not given
# Settings: not given
row,melting point,Compound
1,61 to 63 °C,"COC(=O)c1nc(-c2ccc(C(F)(F)F)cc2Cl)cc(C)c1Cl [F33, methyl 3-chloro-6-(2-chloro-4-(trifluoromethyl)phenyl)-4-methylpicolinate]"
2,56 to 57 °C,"O=C(OCc1ccccc1)c1nc(-c2ccc(C(F)(F)F)cc2Cl)ccc1Cl [F44, benzyl 3-chloro-6-(2-chloro-4-(trifluoromethyl)phenyl)picolinate]"

# System: test plant species
# Assay: Post-emergent herbicidal activity test (greenhouse, foliar spray, visual growth reduction)
# Assay type: in vivo
# Settings: post-emergence, 336 h, ALOMY: blackgrass (Alopecurus myosuroides), 140 g ai/ha, 14 days after application, read-out: Visual Growth Reduction (%) 14 Days After Application, ALOMY
# In short: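 Visual scoring 14 d after treatment (0 = no injury, 100 = complete control) against nontreated and solvent-blank plants gave percent growth reduction. Foliar application used a track sprayer delivering 187 L/ha to seedlings at first or second true leaf stage, grown at 23–29 °C day, ~15 h photoperiod.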
row,Compound,pest or weed control at 140 g/ha
1,"COC(=O)c1nc(-c2ccc(C(F)(F)F)cc2Cl)cc(C)c1Cl [F33, methyl 3-chloro-6-(2-chloro-4-(trifluoromethyl)phenyl)-4-methylpicolinate]",0 to 29%
2,"O=C(OCc1ccccc1)c1nc(-c2ccc(C(F)(F)F)cc2Cl)ccc1Cl [F44, benzyl 3-chloro-6-(2-chloro-4-(trifluoromethyl)phenyl)picolinate]",30 to 44%

# Same assay, conditions: post-emergence, 336 h, AMARE: redroot pigweed (Amaranthus retroflexus), 140 g ai/ha, 14 days after application, read-out: Visual Growth Reduction (%) 14 Days After Application, AMARE
row,Compound,pest or weed control at 140 g/ha
1,"COC(=O)c1nc(-c2ccc(C(F)(F)F)cc2Cl)cc(C)c1Cl [F33, methyl 3-chloro-6-(2-chloro-4-(trifluoromethyl)phenyl)-4-methylpicolinate]",0 to 29%
2,"O=C(OCc1ccccc1)c1nc(-c2ccc(C(F)(F)F)cc2Cl)ccc1Cl [F44, benzyl 3-chloro-6-(2-chloro-4-(trifluoromethyl)phenyl)picolinate]",95 to 100%

# Same assay, conditions: post-emergence, 336 h, AVEFA: wild oat (Avena fatua), 140 g ai/ha, 14 days after application, read-out: Visual Growth Reduction (%) 14 Days After Application, AVEFA
row,Compound,pest or weed control at 140 g/ha
1,"COC(=O)c1nc(-c2ccc(C(F)(F)F)cc2Cl)cc(C)c1Cl [F33, methyl 3-chloro-6-(2-chloro-4-(trifluoromethyl)phenyl)-4-methylpicolinate]",0 to 29%
2,"O=C(OCc1ccccc1)c1nc(-c2ccc(C(F)(F)F)cc2Cl)ccc1Cl [F44, benzyl 3-chloro-6-(2-chloro-4-(trifluoromethyl)phenyl)picolinate]",45 to 59%

# Same assay, conditions: post-emergence, 336 h, CHEAL: lambsquarters (Chenopodium album), 140 g ai/ha, 14 days after application, read-out: Visual Growth Reduction (%) 14 Days After Application, CHEAL
row,Compound,pest or weed control at 140 g/ha
1,"COC(=O)c1nc(-c2ccc(C(F)(F)F)cc2Cl)cc(C)c1Cl [F33, methyl 3-chloro-6-(2-chloro-4-(trifluoromethyl)phenyl)-4-methylpicolinate]",45 to 59%
2,"O=C(OCc1ccccc1)c1nc(-c2ccc(C(F)(F)F)cc2Cl)ccc1Cl [F44, benzyl 3-chloro-6-(2-chloro-4-(trifluoromethyl)phenyl)picolinate]",95 to 100%

# Same assay, conditions: post-emergence, 336 h, CIRAR: canada thistle (Cirsium arvense), 140 g ai/ha, 14 days after application, read-out: Visual Growth Reduction (%) 14 Days After Application, CIRAR
row,Compound,pest or weed control at 140 g/ha
1,"COC(=O)c1nc(-c2ccc(C(F)(F)F)cc2Cl)cc(C)c1Cl [F33, methyl 3-chloro-6-(2-chloro-4-(trifluoromethyl)phenyl)-4-methylpicolinate]",45 to 59%
2,"O=C(OCc1ccccc1)c1nc(-c2ccc(C(F)(F)F)cc2Cl)ccc1Cl [F44, benzyl 3-chloro-6-(2-chloro-4-(trifluoromethyl)phenyl)picolinate]",95 to 100%

# Same assay, conditions: post-emergence, 336 h, CYPES: yellow nutsedge (Cyperus esculentus), 140 g ai/ha, 14 days after application, read-out: Visual Growth Reduction (%) 14 Days After Application, CYPES
row,Compound,pest or weed control at 140 g/ha
1,"COC(=O)c1nc(-c2ccc(C(F)(F)F)cc2Cl)cc(C)c1Cl [F33, methyl 3-chloro-6-(2-chloro-4-(trifluoromethyl)phenyl)-4-methylpicolinate]",0 to 29%
2,"O=C(OCc1ccccc1)c1nc(-c2ccc(C(F)(F)F)cc2Cl)ccc1Cl [F44, benzyl 3-chloro-6-(2-chloro-4-(trifluoromethyl)phenyl)picolinate]",0 to 29%

# Same assay, conditions: post-emergence, 336 h, DIGSA: crabgrass (Digitaria sanguinalis), 140 g ai/ha, 14 days after application, read-out: Visual Growth Reduction (%) 14 Days After Application, DIGSA
row,Compound,pest or weed control at 140 g/ha
1,"COC(=O)c1nc(-c2ccc(C(F)(F)F)cc2Cl)cc(C)c1Cl [F33, methyl 3-chloro-6-(2-chloro-4-(trifluoromethyl)phenyl)-4-methylpicolinate]",30 to 44%
2,"O=C(OCc1ccccc1)c1nc(-c2ccc(C(F)(F)F)cc2Cl)ccc1Cl [F44, benzyl 3-chloro-6-(2-chloro-4-(trifluoromethyl)phenyl)picolinate]",75 to 84%

# Same assay, conditions: post-emergence, 336 h, ECHCG: barnyardgrass (Echinochloa crus-galli), 140 g ai/ha, 14 days after application, read-out: Visual Growth Reduction (%) 14 Days After Application, ECHCG
row,Compound,pest or weed control at 140 g/ha
1,"COC(=O)c1nc(-c2ccc(C(F)(F)F)cc2Cl)cc(C)c1Cl [F33, methyl 3-chloro-6-(2-chloro-4-(trifluoromethyl)phenyl)-4-methylpicolinate]",0 to 29%
2,"O=C(OCc1ccccc1)c1nc(-c2ccc(C(F)(F)F)cc2Cl)ccc1Cl [F44, benzyl 3-chloro-6-(2-chloro-4-(trifluoromethyl)phenyl)picolinate]",45 to 59%

# Same assay, conditions: post-emergence, 336 h, IPOHE: ivy-leaf morning glory (Ipomoea hederacea), 140 g ai/ha, 14 days after application, read-out: Visual Growth Reduction (%) 14 Days After Application, IPOHE
row,Compound,pest or weed control at 140 g/ha
1,"COC(=O)c1nc(-c2ccc(C(F)(F)F)cc2Cl)cc(C)c1Cl [F33, methyl 3-chloro-6-(2-chloro-4-(trifluoromethyl)phenyl)-4-methylpicolinate]",85 to 94%
2,"O=C(OCc1ccccc1)c1nc(-c2ccc(C(F)(F)F)cc2Cl)ccc1Cl [F44, benzyl 3-chloro-6-(2-chloro-4-(trifluoromethyl)phenyl)picolinate]",95 to 100%

# Same assay, conditions: post-emergence, 336 h, KCHSC: kochia (Bassia scoparia), 140 g ai/ha, 14 days after application, read-out: Visual Growth Reduction (%) 14 Days After Application, KCHSC
row,Compound,pest or weed control at 140 g/ha
1,"COC(=O)c1nc(-c2ccc(C(F)(F)F)cc2Cl)cc(C)c1Cl [F33, methyl 3-chloro-6-(2-chloro-4-(trifluoromethyl)phenyl)-4-methylpicolinate]",0 to 29%
2,"O=C(OCc1ccccc1)c1nc(-c2ccc(C(F)(F)F)cc2Cl)ccc1Cl [F44, benzyl 3-chloro-6-(2-chloro-4-(trifluoromethyl)phenyl)picolinate]",85 to 94%

# Same assay, conditions: post-emergence, 336 h, ORYSA: rice (Oryza sativa), 140 g ai/ha, 14 days after application, read-out: Visual Growth Reduction (%) 14 Days After Application, ORYSA
row,Compound,pest or weed control at 140 g/ha
1,"COC(=O)c1nc(-c2ccc(C(F)(F)F)cc2Cl)cc(C)c1Cl [F33, methyl 3-chloro-6-(2-chloro-4-(trifluoromethyl)phenyl)-4-methylpicolinate]",0 to 29%
2,"O=C(OCc1ccccc1)c1nc(-c2ccc(C(F)(F)F)cc2Cl)ccc1Cl [F44, benzyl 3-chloro-6-(2-chloro-4-(trifluoromethyl)phenyl)picolinate]",0 to 29%

# Same assay, conditions: post-emergence, 336 h, SETFA: giant foxtail (Setaria faberi), 140 g ai/ha, 14 days after application, read-out: Visual Growth Reduction (%) 14 Days After Application, SETFA
row,Compound,pest or weed control at 140 g/ha
1,"COC(=O)c1nc(-c2ccc(C(F)(F)F)cc2Cl)cc(C)c1Cl [F33, methyl 3-chloro-6-(2-chloro-4-(trifluoromethyl)phenyl)-4-methylpicolinate]",0 to 29%
2,"O=C(OCc1ccccc1)c1nc(-c2ccc(C(F)(F)F)cc2Cl)ccc1Cl [F44, benzyl 3-chloro-6-(2-chloro-4-(trifluoromethyl)phenyl)picolinate]",85 to 94%

# Same assay, conditions: post-emergence, 336 h, SORVU: grain sorghum (Sorghum vulgare), 140 g ai/ha, 14 days after application, read-out: Visual Growth Reduction (%) 14 Days After Application, SORVU
row,Compound,pest or weed control at 140 g/ha
1,"COC(=O)c1nc(-c2ccc(C(F)(F)F)cc2Cl)cc(C)c1Cl [F33, methyl 3-chloro-6-(2-chloro-4-(trifluoromethyl)phenyl)-4-methylpicolinate]",60 to 74%
2,"O=C(OCc1ccccc1)c1nc(-c2ccc(C(F)(F)F)cc2Cl)ccc1Cl [F44, benzyl 3-chloro-6-(2-chloro-4-(trifluoromethyl)phenyl)picolinate]",85 to 94%

# Same assay, conditions: post-emergence, 336 h, STEME: common chickweed (Stellaria media), 140 g ai/ha, 14 days after application, read-out: Visual Growth Reduction (%) 14 Days After Application, STEME
row,Compound,pest or weed control at 140 g/ha
1,"COC(=O)c1nc(-c2ccc(C(F)(F)F)cc2Cl)cc(C)c1Cl [F33, methyl 3-chloro-6-(2-chloro-4-(trifluoromethyl)phenyl)-4-methylpicolinate]",0 to 29%
2,"O=C(OCc1ccccc1)c1nc(-c2ccc(C(F)(F)F)cc2Cl)ccc1Cl [F44, benzyl 3-chloro-6-(2-chloro-4-(trifluoromethyl)phenyl)picolinate]",0 to 29%

# Same assay, conditions: post-emergence, 336 h, TRZAS: wheat, spring (Triticum aestivum), 140 g ai/ha, 14 days after application, read-out: Visual Growth Reduction (%) 14 Days After Application, TRZAS
row,Compound,pest or weed control at 140 g/ha
1,"COC(=O)c1nc(-c2ccc(C(F)(F)F)cc2Cl)cc(C)c1Cl [F33, methyl 3-chloro-6-(2-chloro-4-(trifluoromethyl)phenyl)-4-methylpicolinate]",0 to 29%
2,"O=C(OCc1ccccc1)c1nc(-c2ccc(C(F)(F)F)cc2Cl)ccc1Cl [F44, benzyl 3-chloro-6-(2-chloro-4-(trifluoromethyl)phenyl)picolinate]",75 to 84%
